The assay deals with acute or chronic gastritis patients with one or more erosions. Put plainly: Clinical trial in acute or chronic gastritis patients (gastroscopy, Example 3). The assay is classed as in vivo, human. To be noted: 300 mg, 2 weeks, N=42. On the procedure:
The Cinnamomum cassia extract of the Preparation Example 1 according to the present disclosure, placebo, and active control drug were administered to acute and chronic gastritis patients to compare and evaluate the effectiveness and safety of Cinnamomum cassia extract according to the present disclosure in a searching manner and to determine an appropriate dose. Specifically, acute or chronic gastritis patients with one or more erosions identified in a gastroscopy performed within 7 days from the start date of administration of investigational medical product were divided into the following test groups and administered for 2 weeks. • Test group I (group administered with 225 mg of Cinnamomum cassia extract according to the present disclosure) • Test group II (group administered with 450 mg of Cinnamomum cassia extract according to the present disclosure) • Control group I (group administered with placebo) • Control group II (group administered with 180 mg of ethanol soft ext. (20->1) of 95% artemisia) • Control group III (group administered with 300 mg rebamipide) • (1) Effective rate on gastroscopy: The proportion of test subjects whose erosion score on gastroscopy reduced by more than 50% after 2 weeks of administration (visit 3) compared to baseline (visit 1) was calculated according to the following Equation 1, and evaluated according to the criteria in Table 3. [table] • (1) Complete cure rate on gastroscopy: The proportion of test subjects who were completely cured to normal on gastroscopy (0 erosions: erosion score 1 point) after 2 weeks of administration (visit 3) compared to baseline (visit 1) was calculated and evaluated according to the following Equation 2.

SMILES strings stand for the structures.

Regarding `O=C(NC(Cc1cc(=O)[nH]c2ccccc12)C(=O)O)c1ccc(Cl)cc1` (stereo not shown) [rebamipide], the “Complete cure rate on gastroscopy” value came to 40.48%, the “Effective example people (complete cure rate on gastroscopy)” value is recorded as 17 people, the “Effective example people (effective rate on gastroscopy)” value stood at 20 people and the “Effective rate on gastroscopy” value is listed as 47.62%.

(Values after patent US20260256863A1, “COMPOSITION, COMPRISING CINNAMOMUM CASSIA EXTRACT HAVING INNOVATIVE CKD EXTRACTION TECHNOLOGY (ICET) TECHNOLOGY APPLIED THERETO, FOR PREVENTING, ALLEVIATING, OR TREATING GASTRITIS OR PEPTIC ULCER” (CHONG KUN DANG PHARMACEUTICAL CORP., priority 2022, published 2026).)
